Assay results reported in US20250144067A1, “PERSONALIZED STARVATION THERAPY FOR CANCER” (Faeth Therapeutics, Inc., priority 2021, published 2025).
Where a name gives a salt, the structure may show the parent alone. Peptide text beside a SMILES is read from it.

What was measured:
[1] = system: NCI-H292 lung cancer cells; test: FDA drug screening, complete media vs cholesterol-free media without statin (TABLE 1); format: cell-based, human
[2] = system: NCI-H292 lung cancer cells; test: FDA drug screening, complete media vs cholesterol-free media with simvastatin (TABLE 2); format: cell-based, human; conditions: for Cholesterol-free media + simvastatin (0.04 μM) / Complete Media: NCI-H292 cells
[3] = Complete minus Cholesterol-free; >0 enhanced anti-cancer activity, about 0 neutral, <0 antagonist
[4] = NCI-H292 cells, cholesterol-free media without statin, FDA drug library screen
[5] = NCI-H292 cells, complete media, FDA drug library screen
[6] = drug in cholesterol-free media with simvastatin 0.04 μM
[7] = complete media vs cholesterol-free media + simvastatin (0.04 μM), >0 enhanced anti-cancer activity, about 0 neutral, <0 antagonist
[8] = Complete minus Cholesterol-free; greater than 0 enhanced anti-cancer activity, about 0 neutral, below 0 antagonist
[9] = NCI-H292 cells, FDA drug library screen, cholesterol-free media without statin
[10] = NCI-H292 cells, FDA drug library screen, complete media
[11] = FDA drug library screen, cholesterol-free media with simvastatin 0.04 μM
[12] = FDA drug library screen, complete media
[13] = NCI-H292 cells, cholesterol-free media without statin
[14] = complete vs cholesterol-free media; >0 enhanced anti-cancer activity, about 0 neutral, <0 antagonist
[15] = cholesterol-free media with simvastatin 0.04 μM, cell growth value in FDA drug screen
[16] = complete media, cell growth value in FDA drug screen
[17] = complete media minus cholesterol-free media + simvastatin, >0 enhanced anti-cancer activity, about 0 neutral, <0 antagonist
[18] = complete vs cholesterol-free media; greater than 0 enhanced anti-cancer activity, about 0 neutral, below 0 antagonists

| Compound | Difference [1, 3] | Cholesterol-free [1, 4] | Complete [1, 5] | Cholesterol-free media + simvastatin (0.04 μM) [2, 6] | Complete Media ([2]; drug in complete media) | Difference [2, 7] | Cholesterol-free media + simvastatin (0.04 μM) [2, 11] | Complete Media [2, 12] | Cholesterol-free [1, 13] | Complete ([1]; NCI-H292 cells, complete media) | Cholesterol-free media + simvastatin (0.04 μM) [2, 15] | Complete Media [2, 16] | Difference [2, 17] | further results |
| --- | --- | --- | --- | --- | --- | --- | --- | --- | --- | --- | --- | --- | --- | --- |
| CC[C@H]1OC(=O)[C@H](C)[C@@H](O[C@H]2C[C@@](C)(OC)[C@@H](O)[C@H](C)O2)[C@H](C)[C@@H](O[C@@H]2O[C@H](C)C[C@H](N(C)C)[C@H]2O)[C@](C)(O)C[C@@H](C)CN(C)[C@H](C)[C@@H](O)[C@]1(C)O [Azithromycin] | 0.05 | 1.249 | 1.303 | 1.336 | 1.162 | −0.17 | – | – | – | – | – | – | – | – |
| CC1(C)S[C@@H]2[C@H](NC(=O)[C@H](NC(=O)N3CCNC3=O)c3ccccc3)C(=O)N2[C@H]1C(=O)O [Azlocillin (sodium salt)] | – | – | – | – | – | −0.09 | 1.046 | 0.9592 | – | – | – | – | – | Difference [1, 8]: −0.16; Cholesterol-free [1, 9]: 1.217; Complete [1, 10]: 1.06 |
| C[C@H]1[C@H](NC(=O)/C(=N\OC(C)(C)C(=O)O)c2csc(N)n2)C(=O)N1S(=O)(=O)O [Aztreonam] | −0.20 | – | – | 1.706 | 1.446 | −0.26 | – | – | 1.093 | 0.892 | – | – | – | – |
| CCOC(=O)OC(C)OC(=O)[C@@H]1N2C(=O)[C@@H](NC(=O)[C@H](N)c3ccccc3)[C@H]2SC1(C)C (stereo partly drawn) [Bacampicillin (hydrochloride)] | – | – | – | – | – | −0.09 | 1.049 | 0.956 | – | – | – | – | – | Difference [1, 8]: −0.18; Cholesterol-free [1, 9]: 1.212; Complete [1, 10]: 1.028 |
| CC[C@H](C)[C@H](N)C1=N[C@H](C(=O)N[C@@H](CC(C)C)C(=O)N[C@H](CCC(=O)O)C(=O)N[C@H](C(=O)N[C@H]2CCCCNC(=O)[C@H](CC(N)=O)NC(=O)[C@@H](CC(=O)O)NC(=O)[C@H](Cc3cnc[nH]3)NC(=O)[C@@H](Cc3ccccc3)NC(=O)[C@H]([C@@H](C)CC)NC(=O)[C@@H](CCCN)NC2=O)[C@@H](C)CC)CS1 [Bacitracin] (HELM PEPTIDE1{[CC[C@H](C)[C@H](N)C1=N[C@H](C(=O)[*:2])CS1].L.[dE].I.K.[NCCC[C@@H](N[*:1])C(=O)[*:2]].I.[dF].H.[dD].N}$PEPTIDE1,PEPTIDE1,5:R3-11:R2$$$V2.0) | – | – | – | – | – | – | 0.9407 | 1.203 | 1.42 | 1.094 | – | – | – | Difference ([1]; complete vs cholesterol-free media; […]): −0.33; Difference ([2]; complete media minus cholesterol-free media + simvastatin, […]): 0.26 |
| NCC(CC(=O)O)c1ccc(Cl)cc1 (stereo not drawn) [Baclofen] | – | 0.5541 | 1.886 | – | – | – | – | – | – | – | 0.9225 | 1.02 | 0.10 | Difference [1, 14]: 1.33 |
| O=c1cc(-c2ccccc2)oc2cc(O)c(O)c(O)c12 [Baicalein] | – | – | – | 1.347 | 1.087 | −0.26 | – | – | 1.261 | 0.9313 | – | – | – | Difference [1, 18]: −0.33 |
| O=C(O)[C@H]1O[C@@H](Oc2cc3oc(-c4ccccc4)cc(=O)c3c(O)c2O)[C@H](O)[C@@H](O)[C@@H]1O [Baicalin] | −0.04 | 1.064 | 1.025 | 1.298 | 1.093 | −0.20 | – | – | – | – | – | – | – | – |
| O=C(O)CCNC(=O)c1ccc(/N=N/c2ccc(O)c(C(=O)O)c2)cc1 [Balsalazide] | – | – | – | – | – | – | – | – | 1.245 | 0.9198 | 1.228 | 1.264 | 0.04 | Difference [1, 18]: −0.33 |
| CN(C)C(=O)Oc1cc(OC(=O)N(C)C)cc(C(O)CNC(C)(C)C)c1 (stereo not drawn) [Bambuterol hydrochloride] | – | 1.362 | 1.472 | – | – | – | – | – | – | – | 1.184 | 1.226 | 0.04 | Difference [1, 14]: 0.11 |
